Assay results taken from ChEMBL document CHEMBL1201862, “PubChem BioAssay data set” (2004).
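Dose response: 5 concentrations. Exposure: 48 h. Format: 96-well plates. Endpoint: linear interpolation; highest concentration if not reached. GI50: concentration for 50% inhibition of growth.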 The source made the active and inactive calls. Cut-off read from the data, not from the text of the source: active = GI50 up to about 1.1 µM and inactive = higher.

Key:
Test in all cases: DTP human tumour cell line panel, 48 h
UACC-257 = system: UACC-257
A549 = system: A549
K562 = system: K562
SK-MEL-5 = system: SK-MEL-5
SNB-19 = system: SNB-19
T47D = system: T47D
NCI-H460 = system: NCI-H460
NCI-H522 = system: NCI-H522
HCT-15 = system: HCT-15
HCC 2998 = system: HCC 2998
RXF 393 = system: RXF 393
SK-OV-3 = system: SK-OV-3
786-0 = system: 786-0
M14 = system: M14
TK-10 = system: TK-10
EKVX = system: EKVX
COLO 205 = system: COLO 205
SR = system: SR
OVCAR-8 = system: OVCAR-8

Structure (SMILES) | GI50 (UACC-257) | GI50 (A549) | GI50 (K562) | GI50 (SK-MEL-5) | GI50 (SNB-19) | GI50 (T47D) | GI50 (NCI-H460) | GI50 (NCI-H522) | GI50 (HCT-15) [µM] | GI50 (HCC 2998) | GI50 (RXF 393) | GI50 (SK-OV-3) | GI50 (786-0) | GI50 (M14) | GI50 (TK-10) | GI50 (EKVX) | GI50 (COLO 205) | GI50 (SR) | GI50 (OVCAR-8)
CC(=O)NC1C(OCc2ccccc2)OC(CO)C(O)C1OC(C)C(=O)N[C@@H](C)C(=O)N[C@H](CCC(=O)NCCNCCNc1c2ccccc2nc2cccc([N+](=O)[O-])c12)C(N)=O (stereo not given in full) | 0.108 µM (active) | 0.0244 µM (active) | 0.0311 µM (active) | 0.0159 µM (active) | 0.29 µM (active) | 0.0461 µM (active) | < 0.01 µM (active) | < 0.01 µM (active) | 0.153 | 0.0152 µM (active) | 0.0169 µM (active) | 0.348 µM (active) | 0.0601 µM (active) | 0.0993 µM (active) | 0.135 µM (active) | 0.199 µM (active) | < 0.0112 µM (active) | 0.0794 µM (active) | 0.11 µM (active)
Nc1ncnc2c1ncn2[C@@H]1O[C@H](COC(c2ccccc2)(c2ccccc2)c2ccccc2)[C@@H](OC(=S)Oc2ccccc2)[C@@H]1F | 14.6 µM (inactive) | 15 µM (inactive) | 3.34 µM (inactive) | 4.89 µM (inactive) | 11.5 µM (inactive) | 8.2 µM (inactive) | 13.1 µM (inactive) | 2.24 µM (inactive) | 3.37 | 14 µM (inactive) | 2.82 µM (inactive) | 14.1 µM (inactive) | 4.58 µM (inactive) | 5.53 µM (inactive) | 17.6 µM (inactive) | 12.3 µM (inactive) | 12.4 µM (inactive) | 2.72 µM (inactive) | 3.37 µM (inactive)
Cc1cc(-c2nc3c(O)cccc3s2)ccc1N | 20.3 µM (inactive) | 19.1 µM (inactive) | 39.2 µM (inactive) | 33.2 µM (inactive) | 15.3 µM (inactive) | 74.5 µM (inactive) | 30.5 µM (inactive) | 17.2 µM (inactive) | 25.4 | 32.8 µM (inactive) | 67.9 µM (inactive) | 39.1 µM (inactive) | 29.3 µM (inactive) | 16.7 µM (inactive) | 26.8 µM (inactive) | 20.2 µM (inactive) | 38.7 µM (inactive) | 25.5 µM (inactive) | 20 µM (inactive)
Nc1nncc2[nH]cnc12 | 63.5 µM (inactive) | 44.7 µM (inactive) | 7.01 µM (inactive) | 24.2 µM (inactive) | > 100 µM (inactive) | > 75.9 µM (inactive) | 90.6 µM (inactive) | > 100 µM (inactive) | 44.4 | > 100 µM (inactive) | > 100 µM (inactive) | 41.5 µM (inactive) | 48.3 µM (inactive) | 35.2 µM (inactive) | > 50.1 µM (inactive) | 52.1 µM (inactive) | 24.2 µM (inactive) | > 100 µM (inactive) | 22.5 µM (inactive)
Cc1[nH]c2ccccc2c1/C=N/NC(=O)c1cccc(I)c1 | 23.7 µM (inactive) | 29.2 µM (inactive) | 24.5 µM (inactive) | 15.7 µM (inactive) | 29 µM (inactive) | 14.8 µM (inactive) | 17.1 µM (inactive) | 24.3 µM (inactive) | 23.7 | 18.6 µM (inactive) | 17.5 µM (inactive) | 32.2 µM (inactive) | 20.7 µM (inactive) | 15 µM (inactive) | 26.7 µM (inactive) | 12.2 µM (inactive) | 13.5 µM (inactive) | 17.9 µM (inactive) | 26.5 µM (inactive)
Nc1nc(N)c(-c2cccc(C(F)(F)F)c2)c(Cc2cccc(C(F)(F)F)c2)n1 | 3.43 µM (inactive) | 0.628 µM (active) | 0.449 µM (active) | 2.98 µM (inactive) | 5.7 µM (inactive) | 12.8 µM (inactive) | 0.604 µM (active) | 4.06 µM (inactive) | 1.44 | 3.1 µM (inactive) | 3.34 µM (inactive) | 8.97 µM (inactive) | 0.841 µM (active) | 1.22 µM (inactive) | 7.67 µM (inactive) | 5.92 µM (inactive) | 6.27 µM (inactive) | 1.25 µM (inactive) | 8.49 µM (inactive)
COc1cc2c(cc1C)NC(=O)/C2=C/c1c(Cl)[nH]c2cc(C)c(OC)cc12 | 9.64 µM (inactive) | 4.55 µM (inactive) | 4.36 µM (inactive) | 2.62 µM (inactive) | 4.63 µM (inactive) | 2.23 µM (inactive) | 0.774 µM (active) | 5.25 µM (inactive) | 3.72 | 4.11 µM (inactive) | 6.81 µM (inactive) | 1.3 µM (inactive) | 3.23 µM (inactive) | 2.15 µM (inactive) | 7.1 µM (inactive) | 8.04 µM (inactive) | 2.33 µM (inactive) | 0.428 µM (active) | 5.98 µM (inactive)
COc1ccc(C(SCCO)(c2ccccc2)c2ccccc2)cc1 | 17.4 µM (inactive) | 12.2 µM (inactive) | 12.9 µM (inactive) | 10.1 µM (inactive) | 15.7 µM (inactive) | 9.84 µM (inactive) | 13.3 µM (inactive) | 13.6 µM (inactive) | 11.9 | 16.4 µM (inactive) | 16.1 µM (inactive) | 16.5 µM (inactive) | 12.5 µM (inactive) | 7.08 µM (inactive) | 18.8 µM (inactive) | 12.9 µM (inactive) | 14 µM (inactive) | 21.6 µM (inactive) | 17.9 µM (inactive)
C=CC(=O)NCCC(=O)OCn1cc(F)c(=O)[nH]c1=O | 7.11 µM (inactive) | 2.36 µM (inactive) | 9.66 µM (inactive) | 3.67 µM (inactive) | 39.4 µM (inactive) | 83.2 µM (inactive) | 0.434 µM (active) | 9.4 µM (inactive) | 6.14 | 0.369 µM (active) | 10.1 µM (inactive) | 16.3 µM (inactive) | 2.92 µM (inactive) | 9.89 µM (inactive) | 0.838 µM (active) | 10.4 µM (inactive) | 1.37 µM (inactive) | 2.12 µM (inactive) | 11.5 µM (inactive)
CCOC(=O)CCC(NC(=O)c1ccc(Nc2nc3ccccc3nc2C(=O)OCC)s1)C(=O)OCC (stereo not given) | > 100 µM (inactive) | 88.1 µM (inactive) | > 100 µM (inactive) | > 100 µM (inactive) | 95.1 µM (inactive) | > 100 µM (inactive) | > 100 µM (inactive) | > 100 µM (inactive) | > 100 | > 100 µM (inactive) | 66.1 µM (inactive) | > 100 µM (inactive) | 21.7 µM (inactive) | > 100 µM (inactive) | > 100 µM (inactive) | > 100 µM (inactive) | > 100 µM (inactive) | > 100 µM (inactive) | 19.5 µM (inactive)
CC(C)(Cc1ccccc1)N1C(=O)N1C(C)(C)Cc1ccccc1 | 40.9 µM (inactive) | 20.1 µM (inactive) | 27.4 µM (inactive) | 14.1 µM (inactive) | > 100 µM (inactive) | 65.9 µM (inactive) | > 100 µM (inactive) | 13.8 µM (inactive) | 21.4 | > 100 µM (inactive) | 14.8 µM (inactive) | 57.4 µM (inactive) | 21.6 µM (inactive) | 34.8 µM (inactive) | > 100 µM (inactive) | 92.7 µM (inactive) | 25.6 µM (inactive) | 20.6 µM (inactive) | > 100 µM (inactive)
COc1ccc2[nH]c3c(C)c4cnccc4c(C)c3c2c1 | 4.07 µM (inactive) | 1.85 µM (inactive) | 2.4 µM (inactive) | > 10 µM (inactive) | > 10 µM (inactive) | > 10 µM (inactive) | 1.78 µM (inactive) | 2.02 µM (inactive) | 1.61 | 1.67 µM (inactive) | 2.49 µM (inactive) | > 10 µM (inactive) | 0.424 µM (active) | 1.26 µM (inactive) | 5.69 µM (inactive) | 1.87 µM (inactive) | 1.58 µM (inactive) | 3.57 µM (inactive) | 1.01 µM (active)
O/N=C1/C2CC3CC1(c1ccccc1)CC(/C3=N/O)/C2=N\O (stereo not given) | > 100 µM (inactive) | > 100 µM (inactive) | > 100 µM (inactive) | > 100 µM (inactive) | > 100 µM (inactive) | > 100 µM (inactive) | > 100 µM (inactive) | > 100 µM (inactive) | > 100 | > 100 µM (inactive) | > 100 µM (inactive) | > 100 µM (inactive) | > 100 µM (inactive) | > 100 µM (inactive) | > 100 µM (inactive) | > 100 µM (inactive) | > 100 µM (inactive) | > 100 µM (inactive) | > 100 µM (inactive)
C/C(CC(O)(C(F)(F)F)C(F)(F)F)=N\O | > 10 µM (inactive) | > 10 µM (inactive) | > 10 µM (inactive) | > 10 µM (inactive) | > 10 µM (inactive) | > 10 µM (inactive) | > 10 µM (inactive) | > 10 µM (inactive) | > 10 | > 10 µM (inactive) | > 10 µM (inactive) | > 10 µM (inactive) | > 10 µM (inactive) | > 10 µM (inactive) | > 10 µM (inactive) | > 10 µM (inactive) | > 10 µM (inactive) | > 10 µM (inactive) | > 10 µM (inactive)
COc1ccc(NS(=O)(=O)c2ccc(NC(NC(=O)CC(C)C)(C(F)(F)F)C(F)(F)F)cc2)nn1 | > 100 µM (inactive) | > 100 µM (inactive) | > 100 µM (inactive) | > 100 µM (inactive) | > 100 µM (inactive) | > 100 µM (inactive) | > 100 µM (inactive) | > 100 µM (inactive) | > 100 | > 100 µM (inactive) | > 100 µM (inactive) | > 100 µM (inactive) | > 100 µM (inactive) | > 100 µM (inactive) | > 100 µM (inactive) | > 100 µM (inactive) | > 100 µM (inactive) | > 100 µM (inactive) | > 100 µM (inactive)
